# Assay results from paper PMC9939733 (The Journal of Biological Chemistry, 2023).
# Where a chain is given by its changes, count along the chain named. Counter-ions that a name gives are not always drawn.
# Columns and labels:
# Type in all cases: biochemical
# R132H IDH1 [1] = target: T1, R132H IDH1 (Homo sapiens, UniProt O75874, R132H); experiment: Absorbance assay (NADPH consumption), substrate turnover in the absence of 2OG; design: made in house; host or cells: Escherichia coli BL21(DE3) pLyS; details: no 2OG; […] test compound, 0.03 μM R132H IDH1, 50 μM NADPH; 2OG = 100
# How it was run: (§1)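 Quadruplicate technical repeats are run. Reaction start is by reagent dispenser.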
# R132H IDH1 [2] = target: T1, R132H IDH1; experiment: Absorbance assay, variant activity in the presence of equimolar 2OG (inhibition screen); design: made in house; host or cells: Escherichia coli BL21(DE3) pLyS; details: […] 2OG and […] test compound, 0.03 μM R132H IDH1, 50 μM NADPH
# How it was run: as §1
# WT IDH2 [3] = target: T2, WT IDH2 (Homo sapiens, UniProt P48735); experiment: Absorbance assay, substrate activity in the absence of DL-isocitrate; details: no DL-isocitrate; […] test compound, 75 μM NADP+, 2.0 nM WT IDH2; compared to DL-isocitrate
# T2 construct: made in house; host or cells: Sf21 insect cells (cell pellets prepared at Evotec)
# T2 sequence (P48735 40-452): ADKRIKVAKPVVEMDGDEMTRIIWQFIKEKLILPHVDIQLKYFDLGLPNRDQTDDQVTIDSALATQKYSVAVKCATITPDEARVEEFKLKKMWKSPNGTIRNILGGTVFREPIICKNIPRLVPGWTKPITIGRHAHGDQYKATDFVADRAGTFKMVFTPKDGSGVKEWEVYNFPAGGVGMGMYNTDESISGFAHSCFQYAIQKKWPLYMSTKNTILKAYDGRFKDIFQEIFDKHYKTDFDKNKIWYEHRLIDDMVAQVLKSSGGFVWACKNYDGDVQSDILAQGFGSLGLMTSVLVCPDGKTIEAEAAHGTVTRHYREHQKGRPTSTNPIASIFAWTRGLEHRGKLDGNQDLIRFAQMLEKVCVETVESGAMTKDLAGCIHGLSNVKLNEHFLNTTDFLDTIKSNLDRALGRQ
# How it was run: as §1
# WT IDH1 [4] = target: T3, WT IDH1 (Homo sapiens, UniProt O75874); experiment: as above; details: no DL-isocitrate; […] test compound, 75 μM NADP+, 2.0 nM WT IDH1; compared to DL-isocitrate
# T3 construct: made in house; host or cells: Escherichia coli BL21(DE3) pLyS
# How it was run: as §1
# R172K IDH2 [5] = target: T4, R172K IDH2 (Homo sapiens, UniProt P48735, R172K); experiment: Absorbance assay, variant activity in the presence of equimolar 2OG (inhibition screen); details: for activity [%] (%-substrate conversion after 20 min incubation): 1.0 mM 2OG and 1.0 mM test compound, 0.03 μM R172K IDH2, 50 μM NADPH
# T4 construct: made in house; host or cells: Sf21 insect cells (cell pellets prepared at Evotec)
# T4 sequence (P48735 40-452 R172K): T2 sequence (P48735 40-452) with R133K
# How it was run: as §1
# R140Q IDH2 [6] = target: T5, R140Q IDH2 (Homo sapiens, UniProt P48735, R140Q); experiment: as above; details: 6.0 mM 2OG and 6.0 mM test compound, 0.03 μM R140Q IDH2, 50 μM NADPH
# T5 construct: made in house; host or cells: Sf21 insect cells (cell pellets prepared at Evotec)
# T5 sequence (P48735 40-452 R140Q): T2 sequence (P48735 40-452) with R101Q
# How it was run: as §1
# WT IDH2 [7] = target: T2, WT IDH2; experiment: Absorbance assay, WT activity in the presence of equimolar DL-isocitrate (inhibition); details: […] isocitrate and […] test compound, 75 μM NADP+, 2.0 nM WT IDH2
# How it was run: as §1
# WT IDH1 [8] = target: T3, WT IDH1; experiment: as above; details: […] isocitrate and […] test compound, 75 μM NADP+, 2.0 nM WT IDH1
# How it was run: as §1
# R172K IDH2 [9] = target: T4, R172K IDH2; experiment: Absorbance assay (NADPH consumption), substrate turnover in the absence of 2OG; details: no 2OG; 1.0 mM test compound, 0.03 μM R172K IDH2, 50 μM NADPH; 2OG = 100
# How it was run: as §1
# R140Q IDH2 [10] = target: T5, R140Q IDH2; experiment: as above; details: no 2OG; 6.0 mM test compound, 0.03 μM R140Q IDH2, 50 μM NADPH; 2OG = 100
# How it was run: as §1
# T1 sequence (O75874 whole entry R132H): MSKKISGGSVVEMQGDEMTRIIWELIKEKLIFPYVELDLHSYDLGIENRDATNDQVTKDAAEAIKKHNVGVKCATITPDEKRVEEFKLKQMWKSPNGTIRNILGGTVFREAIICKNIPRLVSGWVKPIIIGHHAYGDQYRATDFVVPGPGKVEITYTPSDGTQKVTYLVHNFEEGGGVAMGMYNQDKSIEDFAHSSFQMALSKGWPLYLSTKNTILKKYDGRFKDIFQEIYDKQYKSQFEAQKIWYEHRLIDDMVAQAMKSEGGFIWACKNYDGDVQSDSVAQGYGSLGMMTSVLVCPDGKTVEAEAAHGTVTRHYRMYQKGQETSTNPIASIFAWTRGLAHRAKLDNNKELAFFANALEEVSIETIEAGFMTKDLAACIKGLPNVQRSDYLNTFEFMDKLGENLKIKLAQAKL
# T3 sequence (O75874 whole entry): as the sequence (O75874 whole entry R132H) above, with H132R counted along it
SMILES,activity [%] (%-substrate conversion after 20 min incubation) (R132H IDH1 [1]),activity [%] (%-substrate conversion after 20 min incubation) (R132H IDH1 [2]),activity [%] (%-substrate conversion after 20 min incubation) (WT IDH2 [3]),activity [%] (%-substrate conversion after 20 min incubation) (WT IDH1 [4]),activity [%] (%-substrate conversion after 20 min incubation) (R172K IDH2 [5]),activity [%] (%-substrate conversion after 20 min incubation) (R140Q IDH2 [6]),activity [%] (%-substrate conversion after 20 min incubation) (WT IDH2 [7]),activity [%] (%-substrate conversion after 20 min incubation) (WT IDH1 [8]),activity [%] (%-substrate conversion after 20 min incubation) (R172K IDH2 [9]),activity [%] (%-substrate conversion after 20 min incubation) (R140Q IDH2 [10]),inhibition (R172K IDH2 [5]; equimolar 2OG (1.0 mM))
O=C(O)[C@@H]1CCCN1 [L-proline],< 10,98 ± 1,< 10,< 10,98 ± 4,106 ± 2,98 ± 1,102 ± 1,< 10,< 10,–
COC(=O)/C=C/C(=O)OC [dimethyl fumarate],< 10,85 ± 3,< 10,< 10,91 ± 2,61 ± 11,100 ± 3,104 ± 4,< 10,< 10,–
C=C(CC(=O)O)C(=O)O [itaconic acid],< 10,92 ± 2,< 10,< 10,95 ± 7,96 ± 3,99 ± 2,99 ± 1,< 10,< 10,–
O=C(O)CC(=O)O [malonic acid],< 10,103 ± 4,< 10,< 10,98 ± 4,117 ± 11,100 ± 2,100 ± 1,< 10,< 10,–
O=C(O)C(=O)CS [mercaptopyruvic acid],< 10,51 ± 5,< 10,< 10,54 ± 1,91 ± 5,85 ± 1,88 ± 1,< 10,< 10,~ 50%

# Now from value to molecule:
activity [%] (%-substrate conversion after 20 min incubation) (R132H IDH1 [1]),activity [%] (%-substrate conversion after 20 min incubation) (R132H IDH1 [2]),activity [%] (%-substrate conversion after 20 min incubation) (WT IDH2 [3]),activity [%] (%-substrate conversion after 20 min incubation) (WT IDH1 [4]),activity [%] (%-substrate conversion after 20 min incubation) (R172K IDH2 [5]),activity [%] (%-substrate conversion after 20 min incubation) (R140Q IDH2 [6]),activity [%] (%-substrate conversion after 20 min incubation) (WT IDH2 [7]),activity [%] (%-substrate conversion after 20 min incubation) (WT IDH1 [8]),activity [%] (%-substrate conversion after 20 min incubation) (R172K IDH2 [9]),activity [%] (%-substrate conversion after 20 min incubation) (R140Q IDH2 [10]),inhibition (R172K IDH2 [5]; equimolar 2OG (1.0 mM)),SMILES
< 10,86 ± 3,< 10,< 10,87 ± 6,112 ± 13,97 ± 1,98 ± 1,< 10,< 10,–,O=C(O)/C=C/C(=O)O [fumaric acid]
< 10,108 ± 5,< 10,< 10,99 ± 6,105 ± 6,99 ± 2,104 ± 2,< 10,< 10,–,O=CC(=O)O [glyoxylic acid]
< 10,105 ± 3,< 10,< 10,104 ± 5,116 ± 9,100 ± 2,105 ± 2,< 10,< 10,–,C/C(=C\C(=O)O)C(=O)O [mesaconic acid]
